A word on the IC50: it is the midpoint of a concentration-inhibition curve. By Ki is commonly meant the equilibrium dissociation constant of an inhibitor or competing ligand from its target.

Structures are written as SMILES.

These results are taken from ChEMBL document CHEMBL1909046, “DrugMatrix in vitro pharmacology data”.

Assay [1] addresses Matrix metalloproteinase-9 (Homo sapiens, UniProt P14780). In words: biochemical. The assay is classed as cell-based.
Assay [2] deals with Prostaglandin G/H synthase 1 (Homo sapiens, UniProt P23219). The assay is described as follows: biochemical. It counts as tissue-based, Platelet.
Chain of Prostaglandin G/H synthase 1 (P23219 whole entry): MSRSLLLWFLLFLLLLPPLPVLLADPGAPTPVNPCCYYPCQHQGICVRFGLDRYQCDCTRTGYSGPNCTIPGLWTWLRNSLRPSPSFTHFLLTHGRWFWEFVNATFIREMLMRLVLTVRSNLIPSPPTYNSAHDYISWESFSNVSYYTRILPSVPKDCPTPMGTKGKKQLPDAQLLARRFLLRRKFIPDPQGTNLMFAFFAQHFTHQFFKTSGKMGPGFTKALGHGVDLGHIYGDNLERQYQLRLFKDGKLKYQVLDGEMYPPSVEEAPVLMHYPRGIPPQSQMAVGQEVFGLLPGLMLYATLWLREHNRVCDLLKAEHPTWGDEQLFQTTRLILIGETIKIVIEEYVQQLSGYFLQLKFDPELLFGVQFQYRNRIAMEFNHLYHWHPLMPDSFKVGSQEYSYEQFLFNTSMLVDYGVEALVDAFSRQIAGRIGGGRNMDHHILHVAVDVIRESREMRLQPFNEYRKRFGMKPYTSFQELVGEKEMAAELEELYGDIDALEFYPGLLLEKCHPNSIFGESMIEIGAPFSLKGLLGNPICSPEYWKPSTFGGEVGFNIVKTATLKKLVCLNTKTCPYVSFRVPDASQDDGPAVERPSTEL
Assay [3] in a line: DRUGMATRIX: Platelet-Derived Growth Factor (PDGF) radioligand binding (ligand: [125I] PDGF). It counts as cell-based. Conditions: nih3t3; Not Active = under 50% inhibition at 10 µM.
Assay [4] is described as follows: DRUGMATRIX: Calcium Channel Type L, Dihydropyridine radioligand binding (ligand: [3H] Nitrendipine). Conditions: Not Active = under 50% inhibition at 10 µM. The assay is classed as cell membranes, Rattus norvegicus, Wistar, Cerebral cortex, Membrane.
Assay [5] addresses Substance-P receptor (Homo sapiens, UniProt P25103). The assay is classed as cell membranes, CHO, Membrane.
A short description of assay [6]: DRUGMATRIX: Glutamate, Kainate radioligand binding (ligand: [3H] Kainic acid). The assay is classed as cell membranes, Rattus norvegicus, Wistar, Brain, Membrane. Conditions: Not Active = under 50% inhibition at 10 µM.

Chain of Matrix metalloproteinase-9 (P14780 whole entry): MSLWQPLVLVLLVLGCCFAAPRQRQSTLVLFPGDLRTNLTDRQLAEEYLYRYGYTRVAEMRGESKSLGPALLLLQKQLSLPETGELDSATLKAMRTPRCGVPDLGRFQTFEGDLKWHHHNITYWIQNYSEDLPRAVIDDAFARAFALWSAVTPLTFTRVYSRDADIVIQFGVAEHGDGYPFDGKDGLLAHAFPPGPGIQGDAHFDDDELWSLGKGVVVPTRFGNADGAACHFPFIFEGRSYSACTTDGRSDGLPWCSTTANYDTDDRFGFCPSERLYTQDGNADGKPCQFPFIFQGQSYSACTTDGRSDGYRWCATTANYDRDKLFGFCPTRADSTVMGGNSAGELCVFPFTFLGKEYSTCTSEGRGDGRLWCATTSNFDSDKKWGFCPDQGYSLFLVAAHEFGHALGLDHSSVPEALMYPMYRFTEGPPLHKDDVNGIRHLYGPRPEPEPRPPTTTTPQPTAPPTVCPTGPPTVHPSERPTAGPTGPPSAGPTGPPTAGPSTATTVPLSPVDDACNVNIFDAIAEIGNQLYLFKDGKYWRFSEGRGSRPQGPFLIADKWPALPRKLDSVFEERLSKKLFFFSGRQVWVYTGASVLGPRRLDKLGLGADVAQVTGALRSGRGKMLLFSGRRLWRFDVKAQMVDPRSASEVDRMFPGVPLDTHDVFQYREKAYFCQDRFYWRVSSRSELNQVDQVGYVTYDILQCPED
Chain of Substance-P receptor (P25103 whole entry): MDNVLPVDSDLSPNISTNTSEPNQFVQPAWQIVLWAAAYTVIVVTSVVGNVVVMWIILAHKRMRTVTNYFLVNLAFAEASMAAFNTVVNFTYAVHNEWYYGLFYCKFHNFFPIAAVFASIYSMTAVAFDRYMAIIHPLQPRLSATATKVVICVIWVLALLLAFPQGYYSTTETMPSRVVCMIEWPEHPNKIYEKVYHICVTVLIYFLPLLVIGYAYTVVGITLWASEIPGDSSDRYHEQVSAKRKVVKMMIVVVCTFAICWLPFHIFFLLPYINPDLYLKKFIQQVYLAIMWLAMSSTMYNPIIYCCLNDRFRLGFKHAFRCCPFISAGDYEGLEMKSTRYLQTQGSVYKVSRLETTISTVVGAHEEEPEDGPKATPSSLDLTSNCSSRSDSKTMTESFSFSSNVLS

As to `Cc1c(C)c2c(c(C)c1O)CCC(C)(COc1ccc(CC3SC(=O)NC3=O)cc1)O2` (centres undefined) [TROGLITAZONE], the IC50 entry in assay [1], in assay [2] (platelet), in assay [3], in assay [4], in assay [5] (cho) and in assay [6] was “Not Active” in each case. Further, the Ki entry in assay [3], in assay [4] and in assay [6] was “Not Active” each time.
For `c1ccc([C@H]2CN3CCSC3=N2)cc1` [LEVAMISOLE], the IC50 entry in assay [1], in assay [2] (platelet), in assay [3], in assay [4], in assay [5] (cho) and in assay [6] was “Not Active” each time. In addition, the Ki result in assay [3], in assay [4] and in assay [6] was “Not Active” in each case.
Take `CC[C@]1(O)C[C@H]2CN(CCc3c([nH]c4ccccc34)[C@@](C(=O)OC)(c3cc4c(cc3OC)N(C=O)[C@H]3[C@@](O)(C(=O)OC)[C@H](OC(C)=O)[C@]5(CC)C=CCN6CC[C@]43[C@@H]65)C2)C1` [VINCRISTINE]: the IC50 result in assay [1], in assay [2] (platelet), in assay [3], in assay [4], in assay [5] (cho) and in assay [6] was “Not Active” in each case. For the same compound, the Ki entry in assay [3], in assay [4] and in assay [6] was “Not Active” each time.
`O=c1ncn2nc(Sc3ccc(F)cc3F)ccc2c1-c1c(Cl)cccc1Cl` [NEFLAMAPIMOD]: the IC50 result in assay [1] is “Not Active”; in assay [2] (platelet), “Not Active”; in assay [3] it was “Not Active”; in assay [4] (read-out: IC50) it was 38.9 µM; in assay [5] (cho), “Not Active”; in assay [6], “Not Active”. Also, the Ki entry in assay [3] is “Not Active”; in assay [4] (read-out: Ki) it was 25 µM; in assay [6], “Not Active”.
As for `NS(=O)(=O)c1cc2c(cc1Cl)NC(C(Cl)Cl)NS2(=O)=O` (centres undefined) [TRICHLORMETHIAZIDE], the IC50 entry in assay [1], in assay [2] (platelet), in assay [3], in assay [4], in assay [5] (cho) and in assay [6] was “Not Active” in each case. In addition, the Ki entry in assay [3], in assay [4] and in assay [6] was “Not Active” in each case.
As to `CCCOc1ccccc1-c1nc2nn[nH]c2c(=O)[nH]1` [ZAPRINAST], the IC50 entry in assay [1], in assay [2] (platelet), in assay [3], in assay [4], in assay [5] (cho) and in assay [6] was “Not Active” in each case. The Ki entry in assay [3], in assay [4] and in assay [6] was “Not Active” each time.
Turning to `N#CC(C#N)=Cc1ccc(O)c(O)c1` [TYRPHOSTIN 23], the IC50 entry in assay [1], in assay [2] (platelet), in assay [3], in assay [4], in assay [5] (cho) and in assay [6] was “Not Active” throughout. In addition, the Ki result in assay [3], in assay [4] and in assay [6] was “Not Active” throughout.
On to `C=CCC1(C(C)CCC)C(=O)NC(=O)NC1=O` (centres undefined) [SECOBARBITAL], for which the IC50 was 2.64 µM in assay [1] (read-out: IC50); “Not Active” in assay [2] (platelet); “Not Active” in assay [3]; “Not Active” in assay [4]; “Not Active” in assay [5] (cho); “Not Active” in assay [6]. Besides, the Ki entry in assay [3], in assay [4] and in assay [6] was “Not Active” in each case.
As for `OCCN(CCO)c1nc(N2CCCCC2)c2nc(N(CCO)CCO)nc(N3CCCCC3)c2n1` [DIPYRIDAMOLE], the IC50 entry in assay [1], in assay [2] (platelet), in assay [3], in assay [4], in assay [5] (cho) and in assay [6] was “Not Active” each time. The Ki result in assay [3], in assay [4] and in assay [6] was “Not Active” each time.
Turning to `Nc1c2c(nc3ccccc13)CCCC2` [TACRINE], the IC50 result in assay [1], in assay [2] (platelet), in assay [3], in assay [4], in assay [5] (cho) and in assay [6] was “Not Active” in each case. The Ki entry in assay [3], in assay [4] and in assay [6] was “Not Active” throughout.
Turning to `Cn1ccnc1S` [METHIMAZOLE], the IC50 result in assay [1], in assay [2] (platelet), in assay [3], in assay [4], in assay [5] (cho) and in assay [6] was “Not Active” throughout. In addition, the Ki entry in assay [3], in assay [4] and in assay [6] was “Not Active” each time.
With `N[C@@H]1[C@H]2CN(c3nc4c(cc3F)c(=O)c(C(=O)O)cn4-c3ccc(F)cc3F)C[C@@H]12` [TROVAFLOXACIN], the IC50 entry in assay [1], in assay [2] (platelet), in assay [3], in assay [4], in assay [5] (cho) and in assay [6] was “Not Active” in each case. Also, the Ki result in assay [3], in assay [4] and in assay [6] was “Not Active” throughout.
With `CC1(C)O[C@@H]2C[C@H]3[C@@H]4CCC5=CC(=O)C=C[C@]5(C)[C@@]4(F)[C@@H](O)C[C@]3(C)[C@]2(C(=O)CO)O1` [TRIAMCINOLONE ACETONIDE], the half-inhibitory concentration (IC50) result in assay [1], in assay [2] (platelet), in assay [3], in assay [4], in assay [5] (cho) and in assay [6] was “Not Active” throughout. Moreover, the Ki entry in assay [3], in assay [4] and in assay [6] was “Not Active” in each case.
With `NC[C@H]1CC[C@H](C(=O)O)CC1` [TRANEXAMIC ACID], the concentration for half-maximal inhibition (IC50) entry in assay [1], in assay [2] (platelet), in assay [3], in assay [4], in assay [5] (cho) and in assay [6] was “Not Active” throughout. For the same compound, the Ki result in assay [3], in assay [4] and in assay [6] was “Not Active” throughout.
Turning to `COc1c(C)c2c(c(O)c1C/C=C(\C)CCC(=O)O)C(=O)OC2` [MYCOPHENOLIC ACID], the IC50 result in assay [1], in assay [2] (platelet), in assay [3], in assay [4], in assay [5] (cho) and in assay [6] was “Not Active” in each case. In addition, the inhibitory constant (Ki) result in assay [3], in assay [4] and in assay [6] was “Not Active” in each case.
On to `CC/C(=C(\c1ccccc1)c1ccc(OCCN(C)C)cc1)c1ccccc1` [TAMOXIFEN], for which the IC50 entry in assay [1] was “Not Active”; in assay [2] (read-out: IC50) it was 4.39 µM; in assay [5] (read-out: IC50), 15.7 µM. For the same compound, the Ki in assay [5] (read-out: Ki) was determined as 8.54 µM.
Regarding `N[C@@H](Cc1ccc(N(CCCl)CCCl)cc1)C(=O)O`, the IC50 result in assay [1], in assay [2] (platelet), in assay [3], in assay [4], in assay [5] (cho) and in assay [6] was “Not Active” throughout. Further, the Ki result in assay [3], in assay [4] and in assay [6] was “Not Active” throughout.
As for `CO[C@H]1/C=C/O[C@@]2(C)Oc3c(C)c(O)c4c(O)c(c(/C=N/N5CCN(C)CC5)c(O)c4c3C2=O)NC(=O)/C(C)=C\C=C\[C@H](C)[C@H](O)[C@@H](C)[C@@H](O)[C@@H](C)[C@H](OC(C)=O)[C@@H]1C` [RIFAMPIN], the IC50 entry in assay [1], in assay [2] (platelet), in assay [3], in assay [4], in assay [5] (cho) and in assay [6] was “Not Active” throughout. Besides, the inhibition constant (Ki) entry in assay [3], in assay [4] and in assay [6] was “Not Active” each time.
For the compound `CSc1ccc(/C=C2/C(C)=C(CC(=O)O)c3cc(F)ccc32)cc1` [SULINDAC SULFIDE], the IC50 result in assay [1], in assay [3], in assay [4], in assay [5] (cho) and in assay [6] was “Not Active” each time. Also, the Ki result in assay [3], in assay [4] and in assay [6] was “Not Active” throughout.
On to `CN1CCN(CCCN2c3ccccc3Sc3ccc(Cl)cc32)CC1` [PROCHLORPERAZINE], for which the IC50 result in assay [1], in assay [2] (platelet) and in assay [5] (cho) was “Not Active” each time.
As for `CC(C)N1CCN(c2ccc(OCC3COC(Cn4cncn4)(c4ccc(Cl)cc4Cl)O3)cc2)CC1` (centres undefined) [TERCONAZOLE], the IC50 entry in assay [1], in assay [2] (platelet), in assay [4], in assay [5] (cho) and in assay [6] was “Not Active” in each case. The Ki result in assay [4] and in assay [6] was “Not Active” in each case.
As to `Cc1nc2n(c(=O)c1CCN1CCC(c3noc4cc(F)ccc34)CC1)CCCC2` [RISPERIDONE], the IC50 result in assay [1], in assay [2] (platelet) and in assay [5] (cho) was “Not Active” each time.
Take `CCCCc1oc2ccccc2c1C(=O)c1cc(I)c(OCCN(CC)CC)c(I)c1` [AMIODARONE]: the IC50 result in assay [1], in assay [2] (platelet) and in assay [5] (cho) was “Not Active” throughout.
In the case of `N[C@@H](Cc1cc(I)c(Oc2ccc(O)c(I)c2)c(I)c1)C(=O)O` [LIOTHYRONINE], the IC50 result in assay [1], in assay [2] (platelet) and in assay [5] (cho) was “Not Active” in each case.
